Counter-ions that a name gives are not always drawn. Like-named read-outs stand apart in the source and are kept apart here. One block for each compound: values may come before it.
What was measured:
MCL-1 = MCL-1 (Homo sapiens, UniProt Q07820); assay: Protein-protein interaction assay MCL-1/Noxa BH3 peptide (MCL-1 assay), TR-FRET; format: binding; conditions: MBP-MCL-1 / Noxa BH3-derived peptide, median
How it was run: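 MBP-MCL-1 (1 nM final) was preincubated 10 min at 22 °C with compounds (11 concentrations, 0.1 nM–20 μM, duplicates) in Tris pH 7 buffer with NaCl, KF, Tween-20, DTT and BGG. After 1 h at 22 °C in the dark plus overnight at 4 °C, anti-MBP Eu-cryptate/streptavidin-XL665 TR-FRET was read; IC50 came from a 4-parameter fit.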

SUDHL5 [1] = assay: Induction of caspase-3/7 activity (Caspase-Glo 3/7), SUDHL5; format: cell-based; conditions: caspase-3/7 induction, SUDHL5 cells, 3 h treatment, median
How it was run: (§1)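 Caspase-Glo 3/7 luminescence measured after 3 h compound exposure at 37 °C in SUDHL10 and SUDHL5 cells. EC50 values come from background-corrected signals, with curve bottom set to 1 and plateau set to maximal induction by the reference compound.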

SUDHL10 [2] = assay: Induction of caspase-3/7 activity (Caspase-Glo 3/7), SUDHL10; format: cell-based; conditions: caspase-3/7 induction, SUDHL10 cells, 3 h treatment, median
How it was run: as §1

SUDHL5 [3] = assay: Anti-proliferative effect (CellTiter-Glo, 72 h), SUDHL5; format: cell-based; conditions: SUDHL5 cells, antiproliferation, 72 h incubation, median, read-out: Antiproli SUDHL5 [M] (median)
How it was run: (§2)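 Anti-proliferative activity is derived from ATP-based luminescence (CellTiter-Glo) in cells exposed to compound for 72 h at 37 °C, set against a time zero plate read at seeding.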

SUDHL10 [4] = assay: Anti-proliferative effect (CellTiter-Glo, 72 h), SUDHL10; format: cell-based; conditions: SUDHL10 cells, antiproliferation, 72 h incubation, median, read-out: Antiproli SUDHL10 [M] (median)
How it was run: as §2

OPM2 = assay: Anti-proliferative effect (CellTiter-Glo, 72 h), OPM2; format: cell-based; conditions: OPM2 cells, median, read-out: IC50 antiproliferation assay OPM2 [M] (median)
How it was run: as §2

A2780 = assay: Anti-proliferative effect (CellTiter-Glo, 72 h), A2780; format: cell-based; conditions: A2780 cells, median, read-out: IC50 antiproliferation assay A2780 [M] (median)
How it was run: as §2

SUDHL5 [5] = assay: Induction of cytotoxicity (CellTiter-Glo, 5 h), SUDHL5
SUDHL10 [6] = assay: Induction of cytotoxicity (CellTiter-Glo, 5 h), SUDHL10
[7] = read-out: Cytotox SUDHL5 [M] (median), SUDHL5 cells, cytotoxicity induction, CellTiter-Glo, 5 h incubation, median
[8] = read-out: Cytotox SUDHL10 [M] (median), SUDHL10 cells, cytotoxicity induction, CellTiter-Glo, 5 h incubation, median
[9] = Homo sapiens, SU-DHL-5, 5 h, read-out: Cytotox SUDHL5 [M] (median), SUDHL5 cells, cytotoxicity induction, CellTiter-Glo, 5 h incubation, median
[10] = Homo sapiens, SU-DHL10, 5 h, read-out: Cytotox SUDHL10 [M] (median), SUDHL10 cells, cytotoxicity induction, CellTiter-Glo, 5 h incubation, median

MCL-1, sequence (Q07820 whole entry): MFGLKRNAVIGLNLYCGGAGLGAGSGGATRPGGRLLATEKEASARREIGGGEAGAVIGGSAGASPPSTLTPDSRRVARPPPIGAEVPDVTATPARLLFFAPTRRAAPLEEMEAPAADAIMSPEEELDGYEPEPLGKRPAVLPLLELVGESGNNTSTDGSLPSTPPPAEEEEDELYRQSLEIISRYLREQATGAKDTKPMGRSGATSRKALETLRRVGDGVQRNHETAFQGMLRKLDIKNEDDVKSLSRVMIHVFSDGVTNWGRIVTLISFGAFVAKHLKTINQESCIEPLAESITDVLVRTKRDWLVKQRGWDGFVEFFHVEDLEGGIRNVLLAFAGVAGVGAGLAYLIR

SMILES: Cc1ccc2c(CCCOc3cccc4ccccc34)c(C(=O)O)n3c2c1-c1c(nn(C)c1C)COC/C=C\C3 (racemic) [Example 070, (rac)-(11Z)-2,3,4-trimethyl-7-[3-(naphthalen-1-yloxy)propyl]-2,10,13,15-tetrahydropyrazolo[4′,3′:9,10][1,6]oxazacycloundecino[8,7,6-hi]indole-8-carboxylic Acid]
- IC50 (MCL-1): 0.00652 µM
- EC50 (SUDHL5 [1]; Homo sapiens, SU-DHL-5, 3 h): 5.4 µM
- EC50 (SUDHL10 [2]; Homo sapiens, SU-DHL10, 3 h): 8.62 µM
- IC50 (SUDHL5 [3]; Homo sapiens, SU-DHL-5, 72 h): 2e-06 M
- IC50 (SUDHL10 [4]; Homo sapiens, SU-DHL10, 72 h): 8.58e-06 M
- IC50 (OPM2; Homo sapiens, OPM-2, 72 h): 1.34e-05 M
- IC50 (A2780; Homo sapiens, A2780, 72 h): 1.87e-05 M
- IC50 (SUDHL5 [5]; [9]): 4.28e-06 M
- IC50 (SUDHL10 [6]; [10]): 9.59e-06 M

SMILES: CN1CCCn2c(C(=O)O)c(CCCOc3cccc4ccccc34)c3cccc(c32)-c2c(CN3CCOCC3)nn(C)c2C1 (racemic) [Example 1-42, (rac)-7,9-dimethyl-11-(morpholin-4-ylmethyl)-1-[3-(naphthalen-1-yloxy)propyl]-4,5,6,7,8,9-hexahydropyrazolo[3′,4′:7,8][1,5]diazecino[9,10,1-hi]indole-2-carboxylic Acid]
- IC50 (MCL-1): 0.0202 µM
- EC50 (SUDHL5 [1]; Homo sapiens, SU-DHL-5, 3 h): 10.9 µM
- EC50 (SUDHL10 [2]; Homo sapiens, SU-DHL10, 3 h): 14.9 µM
- IC50 (SUDHL5 [3]; Homo sapiens, SU-DHL-5, 72 h): 7.08e-06 M
- IC50 (SUDHL10 [4]; Homo sapiens, SU-DHL10, 72 h): 1.64e-05 M
- IC50 (OPM2; Homo sapiens, OPM-2, 72 h): 3.29e-05 M
- IC50 (A2780; Homo sapiens, A2780, 72 h): > 3.3e-05 M
- IC50 (SUDHL5 [5]; [9]): 1.19e-05 M
- IC50 (SUDHL10 [6]; [10]): > 3.3e-05 M

SMILES: COCCn1nc2c(c1C1CC1)-c1cccc3c(CCCOc4cccc5ccccc45)c(C(=O)O)n(c13)CCCCOC2 (racemic) [Example 084, (rac)-3-Cycopropyl-2-(2-methoxyethyl)-7-[3-(naphthalen-1-yloxy)propyl]-2,10,11,12,13,15-hexahydropyrazolo[4′,3′:9,10][1,6]oxazacycloundecino[8,7,6-hi]indole-8-carboxylic Acid]
- IC50 (MCL-1): 0.00309 µM
- EC50 (SUDHL5 [1]; Homo sapiens, SU-DHL-5, 3 h): 7.55 µM
- EC50 (SUDHL10 [2]; Homo sapiens, SU-DHL10, 3 h): 14.9 µM
- IC50 (SUDHL5 [3]; Homo sapiens, SU-DHL-5, 72 h): 7.19e-06 M
- IC50 (SUDHL10 [4]; Homo sapiens, SU-DHL10, 72 h): 3.87e-06 M
- IC50 (OPM2; Homo sapiens, OPM-2, 72 h): 2.67e-05 M
- IC50 (A2780; Homo sapiens, A2780, 72 h): 1.77e-05 M
- IC50 (SUDHL5 [5]; [9]): 6.6e-06 M
- IC50 (SUDHL10 [6]; [10]): 2.06e-05 M

SMILES: CN1CCCn2c(C(=O)O)c(CCCOc3cccc4ccccc34)c3cccc(c32)-c2c(COc3ccc(-n4ccccc4=O)cc3)nn(C)c2C1 (single isomer, unassigned; enantiomer 2) [Example 1-116, 7,9-Dimethyl-1-[3-(1-naphthyloxy)propyl]-11-{[4-(2-oxopyridin-1(2H)-yl)phenoxy]methyl}-4,5,6,7,8,9-hexahydropyrazolo[3′,4′:7,8][1,5]diazecino[9,10,1-hi]indole-2-carboxylic Acid (Enantiomer 2)]
- IC50 (MCL-1): 0.0137 µM
- EC50 (SUDHL5 [1]): 16.9 µM
- EC50 (SUDHL10 [2]): 19.9 µM
- IC50 (SUDHL5 [3]): 3.25e-06 M
- IC50 (SUDHL10 [4]): 1.18e-05 M
- IC50 (OPM2): 2.96e-05 M
- IC50 (A2780; Homo sapiens, A2780, 72 h): > 3.3e-05 M
- IC50 (SUDHL5 [5]; [7]): 1.32e-05 M
- IC50 (SUDHL10 [6]; [8]): > 3.3e-05 M

Further compounds by falling IC50 (MCL-1), results first:

- IC50 (MCL-1): 0.0323 µM
- EC50 (SUDHL5 [1]): 21.3 µM
- EC50 (SUDHL10 [2]): 23 µM
- IC50 (SUDHL5 [3]): 1.15e-05 M
- IC50 (SUDHL10 [4]): 5.59e-06 M
- IC50 (A2780): 1.43e-05 M
SMILES: Cn1nc(COc2ccc(N3CCN(C(=O)C4CC4)CC3)cc2)c2c1COCCCCn1c(C(=O)O)c(CCCOc3cccc4ccccc34)c3cccc-2c31 (single isomer, unassigned; enantiomer 2) [Example 1-23, 3-({4-[4-(cyclopropylcarbonyl)piperazin-1-yl)phenoxy]methyl}-1-methyl-7-[3-(naphthalen-1-yloxy)propyl]-1,10,11,12,13,15-hexahydropyrazolo[4′,3′:9,10][1,6]oxazacycloundecino[8,7,6-hi]indole-8-carboxylic acid (enantiomer 2)]
- IC50 (OPM2): 1.7e-05 M
- IC50 (SUDHL5 [5]; [7]): 2.45e-05 M
- IC50 (SUDHL10 [6]; [8]): > 3.3e-05 M

- IC50 (MCL-1): 0.00436 µM
- EC50 (SUDHL5 [1]; Homo sapiens, SU-DHL-5, 3 h): 2.66 µM
- EC50 (SUDHL10 [2]; Homo sapiens, SU-DHL10, 3 h): 8.04 µM
- IC50 (SUDHL5 [3]; Homo sapiens, SU-DHL-5, 72 h): 5.79e-06 M
- IC50 (SUDHL10 [4]; Homo sapiens, SU-DHL10, 72 h): 5.07e-06 M
- IC50 (A2780; Homo sapiens, A2780, 72 h): 9.61e-06 M
SMILES: Cn1nc(COc2ccc(N3CCN(CCC(C)(C)O)CC3)cc2)c2c1COCCCCn1c(C(=O)O)c(CCCOc3cccc4ccccc34)c3cccc-2c31 (racemic) [Example 1-121, (rac)-3-({4-[4-(3-hydroxy-3-methylbutyl)piperazin-1-yl]phenoxy}methyl)-1-methyl-7-[3-(naphthalen-1-yloxy)propyl]-1,10,11,12,13,15-hexahydropyrazolo[4′,3′:9,10][1,6]oxazacycloundecino[8,7,6-hi]indole-8-carboxylic Acid Ammonium Salt]
- IC50 (OPM2; Homo sapiens, OPM-2, 72 h): 8.33e-06 M
- IC50 (SUDHL5 [5]; [9]): 3.07e-06 M
- IC50 (SUDHL10 [6]; [10]): 6.21e-06 M
